{"source": "patent US20220313782A1", "about": "“METHODS AND COMPOSITIONS INVOLVING TERT ACTIVATING THERAPIES” (BOARD OF REGENTS, THE UNIVERSITY OF TEXAS SYSTEM, priority 2019, published 2022)", "key": {"Tert gene expression": {"tested_on": "Tert gene expression", "experiment": "Tert mRNA levels in cortex and hippocampus of AD mice treated with histone methyltransferase inhibitors", "assay_type": "in vivo, mouse", "conditions": "cortex and hippocampus of AD mice (5xFAD), FIG. 1I", "text": "Tert mRNA levels in the cortex of 3xTg-AD and wildtype control (B6129SF2/J) mice (n=4; 3-month-old). (B) Tert mRNA levels in the hippocampus of 5xFAD and wildtype littermate control mice (n=4; 2˜3-month-old). (C) Tert mRNA levels in primary cortical and hippocampal neurons isolated from 3xTg-AD and control mice at DIV 14 (n=3). (D) Tert mRNA levels in primary cortical and hippocampal neurons isolated from 5xFAD and control mice at DIV 14 (n=3). (E) Telomerase activity in hippocampal neurons isolated from 5xFAD and control mice (n=4; 2˜3-month-old). (F) Representative view of H3K9me3 repressive histone mark occupancy in Tert gene of 5xFAD and control mouse primary neurons at DIV 14. […]\nFocusing in particular on the neuronal population, the inventors isolated and cultured primary cortical and hippocampal neurons from E18.5-E19.5 AD mouse brains, and Tert mRNA levels were examined at 14 Days in vitro (DIV), by which time the synaptic network is mature. […] To investigate whether reversible H3K9 methylation is involved in the repression of Tert, the inventors assessed the impact of histone methyltransferase inhibitors chaetocin and BIX-01294, the non-selective cofactor-competitive inhibitor and the selective substrate-competitive inhibitor, respectively, in the AD mouse model (Greiner et al., Nat Chem Biol, 2005; Kubicek et al., Mol Cell, 2007; Yuan et al., ACS Chem Biol, 2012). […]"}, "H3K9 methylation marks": {"tested_on": "H3K9 methylation marks", "conditions": "peripheral administration; cited from earlier work"}}}
{"smiles": "COc1cc2nc(N3CCCN(C)CC3)nc(NC3CCN(Cc4ccccc4)CC3)c2cc1OC", "note": "[BIX-01294]", "values": [{"measurement": "Tert gene expression (Tert mRNA levels)", "setting": "Tert gene expression", "value": "de-repression of Tert gene expression"}, {"measurement": "H3K9 methylation marks in the central nervous system", "setting": "H3K9 methylation marks", "value": "reduce H3K9 methylation marks"}]}
